This is an account of results in US20140249135A1, “PIM KINASE INHIBITORS AND METHODS OF THEIR USE” (NOVARTIS AG, priority 2007, published 2014).

What all share (format): biochemical
The target of one experiment is Pim2 kinase (Homo sapiens, UniProt Q9P1W9). The experiment in a line: Pim2 ATP depletion assay.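 Further: Luciferase-based luminescent readout of ATP remaining after PIM2 phosphorylates a BAD peptide, final 5 nM enzyme, 4 µM ATP, 10 µM peptide, 2.5% DMSO, run to roughly half ATP consumption.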 Conditions: read-out: IC50 (μM) PIM2.
Sequence of Pim2 kinase (Q9P1W9 whole entry): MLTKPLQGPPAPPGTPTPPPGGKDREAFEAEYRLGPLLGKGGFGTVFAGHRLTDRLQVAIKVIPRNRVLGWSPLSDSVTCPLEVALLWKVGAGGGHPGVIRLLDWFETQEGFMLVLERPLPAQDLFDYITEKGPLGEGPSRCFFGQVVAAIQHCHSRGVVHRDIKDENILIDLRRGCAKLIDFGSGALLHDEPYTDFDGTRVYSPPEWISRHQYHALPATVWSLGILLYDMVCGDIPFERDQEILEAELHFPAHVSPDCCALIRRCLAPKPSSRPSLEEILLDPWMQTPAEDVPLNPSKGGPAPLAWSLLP
A further experiment has as its target Pim3 kinase (Homo sapiens, UniProt Q86V86). Nature of the experiment: Pim3 ATP depletion assay. To be noted: read-out: IC50 (μM) PIM3.
A further experiment deals with Pim1 kinase (Homo sapiens, UniProt P11309). The experiment in a line: Pim1 ATP depletion assay.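 Further: Luciferase-luciferin luminescence readout of residual ATP after PIM1 transfers phosphate to a peptide substrate, 40 µM ATP added, reaction run to roughly half ATP consumption.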 Conditions: Pim1 ATP depletion assay; read-out: IC50 (μM) PIM1.
Sequence of Pim1 kinase (P11309 whole entry): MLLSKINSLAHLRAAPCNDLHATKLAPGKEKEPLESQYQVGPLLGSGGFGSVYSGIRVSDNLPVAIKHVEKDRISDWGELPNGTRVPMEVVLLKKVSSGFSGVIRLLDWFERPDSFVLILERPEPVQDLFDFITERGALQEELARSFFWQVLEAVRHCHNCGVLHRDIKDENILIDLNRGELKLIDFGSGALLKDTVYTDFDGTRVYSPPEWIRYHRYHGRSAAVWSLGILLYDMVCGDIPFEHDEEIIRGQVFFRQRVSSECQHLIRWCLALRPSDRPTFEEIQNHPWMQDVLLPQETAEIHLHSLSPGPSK

Take `NCCC(=O)N1CCN(c2ccncc2NC(=O)c2nc(-c3ccccc3F)ccc2N)CC1` [Example 251, 3-Amino-6-(2-fluoro-phenyl)-pyridine-2-carboxylic acid {4-[4-(3-amino-propionyl)-piperazin-1-yl]-pyridin-3-yl}-amide]: the IC50 on Pim2 kinase, on Pim3 kinase and on Pim1 kinase was under 1 µM throughout.

In the case of `NCC(=O)N1CCN(c2ccncc2NC(=O)c2nc(-c3ccccc3F)ccc2N)CC1` [Example 252, 3-Amino-6-(2-fluoro-phenyl)-pyridine-2-carboxylic acid {4-[4-(2-amino-acetyl)-piperazin-1-yl]-pyridin-3-yl}-amide], the IC50 on Pim2 kinase, on Pim3 kinase and on Pim1 kinase was under 1 µM throughout.

As for `CC(C)NC(=O)c1ccc(F)c(-c2ccc(N)c(C(=O)Nc3cnccc3N3CC[C@@H](F)[C@H](N)C3)n2)c1` [Example 253, 3-Amino-6-(2-fluoro-5-isopropylcarbamoyl-phenyl)-pyridine-2-carboxylic acid (3-amino-4-fluoro-3,4,5,6-tetra-hydro-2H-[1,4′]bipyridinyl-3′-yl)-amide], the IC50 on Pim2 kinase, on Pim3 kinase and on Pim1 kinase was under 1 µM each time.

On to `Nc1ccc(-c2ccccc2F)nc1C(=O)Nc1cnccc1N1CCC(F)(F)C(N)C1` (stereo not drawn) [Example 254, 3-Amino-6-(2-fluoro-phenyl)-pyridine-2-carboxylic acid (3-amino-4,4-difluoro-3,4,5,6-tetra-hydro-2H-[1,4′]bipyridinyl-3′-yl)-amide], for which the IC50 at Pim2 kinase, at Pim3 kinase and on Pim1 kinase was under 1 µM throughout.

As to `CC(C)NC(=O)c1ccc(F)c(-c2ccc(N)c(C(=O)Nc3cnccc3N3CCC(F)(F)C(N)C3)n2)c1` (stereo not drawn) [Example 255, 3-Amino-6-(2-fluoro-5-isopropylcarbamoyl-phenyl)-pyridine-2-carboxylic acid (3-amino-4,4-difluoro-3,4,5,6-tetra-hydro-2H-[1,4′]bipyridinyl-3′-yl)-amide], the IC50 on Pim2 kinase, on Pim3 kinase and at Pim1 kinase was under 1 µM throughout.

Consider `Nc1ccc(-c2nccs2)nc1C(=O)Nc1cnccc1N1CC[C@@H](F)[C@H](N)C1` [Example 257, 3-amino-N-{4-[(3R,4R)-3-amino-4-fluoropiperidin-1-yl]pyridin-3-yl}-6-(1,3-thiazol-2-yl)pyridine-2-carboxamide], for which the IC50 on Pim2 kinase, on Pim3 kinase and on Pim1 kinase was under 1 µM throughout.

`CC(C)NC(=O)c1ccc(F)c(-c2ccc(N)c(C(=O)Nc3cnccc3N3CC[C@H](F)[C@H](N)C3)n2)c1` [Example 258, 3-Amino-6-(2-fluoro-5-isopropylcarbamoyl-phenyl)-pyridine-2-carboxylic acid (3-amino-4-fluoro-3,4,5,6-tetra-hydro-2H-[1,4′]bipyridinyl-3′-yl)-amide]: the IC50 on Pim2 kinase, at Pim3 kinase and on Pim1 kinase was under 1 µM throughout.

Consider `Nc1cc(F)c(Br)nc1C(=O)Nc1cnccc1N1CCC[C@H](N)C1` [Example 259, 3-amino-N-{4-[(3S)-3-amino-piperidin-1-yl]pyridin-3-yl}-6-bromo-5-fluoropyridine-2-carboxamide], for which the IC50 at Pim2 kinase, at Pim3 kinase and at Pim1 kinase was under 1 µM in each case.

Take `Nc1cc(F)cnc1C(=O)Nc1cnccc1N1CCC[C@H](N)C1` [Example 260, 3-amino-N-{4-[(3S)-3-amino-piperidin-1-yl]pyridin-3-yl}-5-fluoropyridine-2-carboxamide]: the IC50 at Pim2 kinase, at Pim3 kinase and on Pim1 kinase was under 1 µM in each case.

In the case of `Nc1cnc(-c2ccccc2)nc1C(=O)Nc1cnccc1N1CCCC(O)(C(F)(F)F)C1` (stereo not drawn) [Example 262, 5-Amino-2-phenyl-pyrimidine-4-carboxylic acid (3-hydroxy-3-trifluoromethyl-3,4,5,6-tetra-hydro-2H-[1,4′]bipyridinyl-3′-yl)-amide], the values for the IC50 at Pim2 kinase, on Pim3 kinase and on Pim1 kinase were 1 to 10 µM, under 1 µM and under 1 µM, respectively.

As to `Nc1cnc(-c2ccccc2F)nc1C(=O)Nc1cnccc1N1CCC[C@H](N)C1` [Example 263, 5-Amino-2-(2-fluoro-phenyl)-pyrimidine-4-carboxylic acid (3-amino-3,4,5,6-tetrahydro-2H-[1,4′]bipyridinyl-3′-yl)-amide], the IC50 on Pim2 kinase, at Pim3 kinase and on Pim1 kinase was under 1 µM throughout.

For the compound `Nc1cc(-c2ccncc2NC(=O)c2nc(-c3c(F)cccc3F)ccc2N)nc(C(F)(F)F)n1` [Example 266, 3-Amino-6-(2,6-difluoro-phenyl)-pyridine-2-carboxylic acid [4-(6-amino-2-trifluoromethyl-pyrimidin-4-yl)-pyridin-3-yl]-amide], the IC50 on Pim2 kinase, at Pim3 kinase and on Pim1 kinase was under 1 µM each time.

In the case of `COc1cc(-c2ccncc2NC(=O)c2nc(-c3cc(C(=O)NC(C)C)ccc3F)ccc2N)nc(N)n1` [Example 267, 3-Amino-6-(2-fluoro-5-isopropylcarbamoyl-phenyl)-pyridine-2-carboxylic acid [4-(2-amino-6-methoxy-pyrimidin-4-yl)-pyridin-3-yl]-amide], the IC50 at Pim2 kinase, at Pim3 kinase and on Pim1 kinase was under 1 µM throughout.

`Cc1cc(-c2ccncc2NC(=O)c2nc(-c3ccccc3)ncc2N)cc(N)n1` [Example 269, 5-Amino-2-phenyl-pyrimidine-4-carboxylic acid (6′-amino-2′-methyl-[4,4′]bipyridinyl-3-yl)-amide]: the IC50 on Pim2 kinase, on Pim3 kinase and at Pim1 kinase was under 1 µM in each case.

For `Nc1cnc(-c2c(F)cccc2F)nc1C(=O)Nc1cnccc1N1CCC[C@H](N)C1` [Example 270, 5-Amino-2-(2,6-difluoro-phenyl)-pyrimidine-4-carboxylic acid (3-amino-3,4,5,6-tetrahydro-2H-[1,4′]bipyridinyl-3′-yl)-amide], the IC50 on Pim2 kinase, on Pim3 kinase and on Pim1 kinase was under 1 µM each time.

On to `COc1nc(N)cc(-c2ccncc2NC(=O)c2nc(-c3c(F)cccc3F)ccc2N)n1` [Example 271, 3-Amino-6-(2,6-difluoro-phenyl)-pyridine-2-carboxylic acid [4-(6-amino-2-methoxy-pyrimidin-4-yl)-pyridin-3-yl]-amide], for which the IC50 on Pim2 kinase, at Pim3 kinase and at Pim1 kinase was under 1 µM each time.

Regarding `Cc1nc(N)cc(-c2ccncc2NC(=O)c2nc(-c3ccccc3F)ncc2N)n1` [Example 272, 5-Amino-2-(2-fluoro-phenyl)-pyrimidine-4-carboxylic acid [4-(6-amino-2-methyl-pyrimidin-4-yl)-pyridin-3-yl]-amide], the IC50 at Pim2 kinase, at Pim3 kinase and at Pim1 kinase was under 1 µM each time.

As for `Cc1nc(N)cc(-c2ccncc2NC(=O)c2nc(-c3cc(C(=O)NC(C)C)ccc3F)ccc2N)n1` [Example 273, 3-Amino-6-(2-fluoro-5-isopropylcarbamoyl-phenyl)-pyridine-2-carboxylic acid [4-(6-amino-2-methyl-pyrimidin-4-yl)-pyridin-3-yl]-amide], the IC50 at Pim2 kinase, on Pim3 kinase and on Pim1 kinase was under 1 µM throughout.

In the case of `Cc1nc(N)cc(-c2ccncc2NC(=O)c2nc(-c3c(F)cccc3F)ccc2N)n1` [Example 274, 3-Amino-6-(2,6-difluoro-phenyl)-pyridine-2-carboxylic acid [4-(6-amino-2-methyl-pyrimidin-4-yl)-pyridin-3-yl]-amide], the IC50 at Pim2 kinase, at Pim3 kinase and at Pim1 kinase was under 1 µM each time.

With `Nc1ccc(-c2c(F)cccc2F)nc1C(=O)Nc1cnccc1N1CC[C@@H](F)[C@H](N)C1` [Example 277, 3-Amino-6-(2,6-difluoro-phenyl)-pyridine-2-carboxylic acid (3-amino-4-fluoro-3,4,5,6-tetrahydro-2H-[1,4′]bipyridinyl-3′-yl)-amide], the IC50 at Pim2 kinase, on Pim3 kinase and at Pim1 kinase was under 1 µM in each case.

For the compound `Nc1ccc(-c2c(F)cccc2F)nc1C(=O)Nc1cnccc1N1CC(N)CC(CF)C1` (stereo not drawn) [Example 278, 3-Amino-6-(2,6-difluoro-phenyl)-pyridine-2-carboxylic acid (5-amino-3-fluoromethyl-3,4,5,6-tetrahydro-2H-[1,4′]bi-pyridinyl-3′-yl)-amide], the IC50 at Pim2 kinase, at Pim3 kinase and at Pim1 kinase was under 1 µM each time.

With `Nc1ccc(C2CCCCC2)nc1C(=O)Nc1cnccc1N1CC(N)CC(C(F)(F)F)C1` (stereo not drawn) [Example 279, 3-Amino-6-cyclohexyl-pyridine-2-carboxylic acid (3-amino-5-trifluoromethyl-3,4,5,6-tetra-hydro-2H-[1,4′]bipyridinyl-3′-yl)-amide], the IC50 on Pim2 kinase, at Pim3 kinase and at Pim1 kinase was under 1 µM in each case.

Take `NC1CC(C(F)(F)F)CN(c2ccncc2NC(=O)c2nc(-c3ccccc3F)ccc2F)C1` (stereo not drawn) [Example 280, 3-Fluoro-6-(2-fluoro-phenyl)-pyridine-2-carboxylic acid (3-amino-5-trifluoromethyl-3,4,5,6-tetrahydro-2H-[1,4′]bipyridinyl-3′-yl)-amide]: the IC50 at Pim2 kinase, on Pim3 kinase and on Pim1 kinase was under 1 µM each time.

On to `NC1CC(C(F)(F)F)CN(c2ccncc2NC(=O)c2ccc(F)c(-c3ccccc3F)n2)C1` (stereo not drawn) [Example 281, 5-Fluoro-6-(2-fluoro-phenyl)-pyridine-2-carboxylic acid (3-amino-5-trifluoromethyl-3,4,5,6-tetrahydro-2H-[1,4′]bipyridinyl-3′-yl)-amide], for which the IC50 at Pim2 kinase, on Pim3 kinase and at Pim1 kinase was under 1 µM each time.
